What follows are compounds tested against T1, GLP-1R (Homo sapiens, UniProt P43220) (assay: GLP-1R Activation - cAMP Assay 1). Details: cAMP increase in CHO cells stably expressing GLP-1R; 30 minutes incubation; 10 point dose response.
Format: cell-based
Procedure: GLP-1R Activation—cAMP Assay 1
GLP-1R activation by a compound of the present disclosure was quantified by measuring cAMP increase in CHO cells stably expressing GLP-1R (MultiSpan product #C1267-1a). The cells were harvested and plated in growth medium (DMEM/F-12 (Corning product #10-090-CV) supplemented with 10% FBS (HyClone product #SH30071-03), penicillin/streptomycin (Corning product #30-002CI) and 10 µg/ml puromycin (Gibco product #A11138-03)) at 1,000 cells/well in a 384-well plate (Greiner product #781080). The cells were then incubated overnight at 37° C., 5% CO2. The next day, the medium was removed and the cells were washed with DPBS (Corning product #21-031-CM) before adding the assay medium (HBSS, Corning product #21-023-CV) with 20 mM Hepes (Gibco product #15630-080) and 0.1% BSA (Rockland Immunochemicals product #BSA-1000)). Following the medium change, the cells were incubated for 1 hour at 37° C., 5% CO2. The tested GLP-1 compound was added to the cells in a 10 point dose response followed by a 30 minutes incubation at 37° C., 5% CO2. cAMP concentration increase was then detected using Cisbio's cAMP Gs Dynamic Kit (product #62AM4PEC) according to the manufacturer's protocol. The response was plotted against the log of the agonist concentration and fitted to a sigmoidal equation to determine the EC50.

T1 sequence (P43220 24-463): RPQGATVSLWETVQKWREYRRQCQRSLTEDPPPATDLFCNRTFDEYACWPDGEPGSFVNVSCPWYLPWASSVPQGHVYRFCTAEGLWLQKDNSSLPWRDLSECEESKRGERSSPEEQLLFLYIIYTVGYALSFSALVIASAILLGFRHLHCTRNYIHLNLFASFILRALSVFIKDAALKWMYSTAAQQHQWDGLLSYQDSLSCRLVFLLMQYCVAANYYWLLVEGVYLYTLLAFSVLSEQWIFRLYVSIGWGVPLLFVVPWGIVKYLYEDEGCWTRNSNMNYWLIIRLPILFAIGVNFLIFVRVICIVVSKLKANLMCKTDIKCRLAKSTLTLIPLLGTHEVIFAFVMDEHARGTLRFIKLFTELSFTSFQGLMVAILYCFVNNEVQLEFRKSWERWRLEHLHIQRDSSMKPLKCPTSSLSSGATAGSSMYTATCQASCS

Row | Structure (SMILES) | EC50 [nM]
1 | COCCn1c(CN2CCC(c3cccc(OCc4ccc(C#N)c5cccnc45)n3)CC2)nc2ccc(C(=O)O)cc21 [Example 42, 2-((4-(6-((5-cyanoquinolin-8-yl)methoxy)pyridin-2-yl)piperidin-1-yl)methyl)-1-(2-methoxyethyl)-1H-benzo[d]imidazole-6-carboxylic acid] | 6.6
2 | COCCn1c(CN2CCC(c3cccc(OCc4ccc5c(c4)COC5=O)n3)CC2)nc2ccc(C(=O)O)cc21 [Example 43, 1-(2-Methoxyethyl)-2-((4-(6-((1-oxo-1,3-dihydroisobenzofuran-5-yl)methoxy)pyridin-2-yl)piperidin-1-yl)methyl)-1H-benzo[d]imidazole-6-carboxylic acid] | 345

Now from value to compound:

Row | EC50 [nM] | Structure (SMILES)
3 | > 100 | COCCn1c(CN2CCC(c3cccc(OCc4c(F)c(F)c(F)c(F)c4F)n3)CC2)nc2ccc(C(=O)O)cc21 [Example 14, 1-(2-methoxyethyl)-2-((4-(6-((perfluorophenyl)methoxy)pyridin-2-yl)piperidin-1-yl)methyl)-1H-benzo[d]imidazole-6-carboxylic acid]
4 | 58.3 | COCCn1c(CN2CCC(c3cccc(OCc4ccc(C5CC5)cc4)n3)CC2)nc2ccc(C(=O)O)cc21 [Example 38, 2-((4-(6-((4-cyclopropylbenzyl)oxy)pyridin-2-yl)piperidin-1-yl)methyl)-1-(2-methoxyethyl)-1H-benzo[d]imidazole-6-carboxylic acid]
5 | 2200 | COCCn1c(CN2CCC(c3cccc(OCc4c(F)cc(C(N)=O)cc4F)n3)CC2)nc2ccc(C(=O)O)cc21 [Example 37, 2-((4-(6-((4-carbamoyl-2,6-difluorobenzyl)oxy)pyridin-2-yl)piperidin-1-yl)methyl)-1-(2-methoxyethyl)-1H-benzo[d]imidazole-6-carboxylic acid]
6 | 29 | COCCn1c(CN2CCC(c3cccc(OCc4ccc(Cl)c5occc45)n3)CC2)nc2ccc(C(=O)O)cc21 [Example 31, 2-((4-(6-((7-chlorobenzofuran-4-yl)methoxy)pyridin-2-yl)piperidin-1-yl)methyl)-1-(2-methoxyethyl)-1H-benzo[d]imidazole-6-carboxylic acid]

The compounds below were run against T1, GLP-1R (assay: GLP-1R Activation - cAMP Assay 2). Details: cAMP increase in CHO cells stably expressing GLP-1R; pre-spotted agonists; assay buffer or 100% Human Plasma (not given); 30 minutes.
Format: cell-based
Procedure: GLP-1R Activation—cAMP Assay 2
GLP-1R activation by small molecule agonists is quantified by measuring cAMP increase in CHO cells stably expressing GLP-1R (MultiSpan product #C1267-1a). 50 nL of agonists are pre-spotted in a 10 point dose response onto 384-well plate (Corning product #CL3826) using the Labcyte Echo System. The cells are harvested and plated in assay buffer (HBSS (Corning product #21-023-CV) with 20 mM Hepes (Gibco product #15630-080) and 0.1% BSA (Rockland Immunochemicals product #BSA-1000)) or 100% Human Plasma (Innovative Research product #50-643-396) at 1,000 cells/well, 10 μL/well, onto the pre-spotted plates. The cells are then incubated for 30 minutes at 37° C., 5% CO2. cAMP concentration increase is then detected using Cisbio's cAMP Gs Dynamic Kit (product #62AM4PEC) according to the manufacturer's protocol. The response is plotted against the log of the agonist concentration and fitted to a sigmoidal equation to determine the EC50.

Row | EC50 [nM] | Structure (SMILES)
7 | 0.3 | O=C(O)c1ccc2nc(CN3CCC(c4cccc(OCc5ccc(-n6ccnn6)cc5F)n4)CC3)n(C[C@@H]3CCO3)c2c1 [Example 41, (S)-2-((4-(6-((2-fluoro-4-(1H-1,2,3-triazol-1-yl)benzyl)oxy)pyridin-2-yl)piperidin-1-yl)methyl)-1-(oxetan-2-ylmethyl)-1H-benzo[d]imidazole-6-carboxylic acid]
8 | 11.8 | COCCn1c(CN2CCC(c3cccc(OCc4ccc(-c5cnn(C(F)F)c5)cc4F)n3)CC2)nc2ccc(C(=O)O)cc21 [Example 16, 2-((4-(6-((4-(1-(difluoromethyl)-1H-pyrazol-4-yl)-2-fluorobenzyl)oxy)pyridin-2-yl)piperidin-1-yl)methyl)-1-(2-methoxyethyl)-1H-benzo[d]imidazole-6-carboxylic acid]
9 | 1.7 | O=C(O)c1ccc2nc(CN3CCC(c4cccc(OCc5ccc(-c6cn(C7COC7)nn6)cc5F)n4)CC3)n(C[C@@H]3CCO3)c2c1 [Example 24, (S)-2-((4-(6-((2-fluoro-4-(1-(oxetan-3-yl)-1H-1,2,3-triazol-4-yl)benzyl)oxy)pyridin-2-yl)piperidin-1-yl)methyl)-1-(oxetan-2-ylmethyl)-1H-benzo[d]imidazole-6-carboxylic acid]
10 | 1.7 | O=C(O)c1ccc2nc(CN3CCC(c4cccc(OCc5ccc(-c6cn(C7CC7)nn6)cc5F)n4)CC3)n(C[C@@H]3CCO3)c2c1 [Example 23, (S)-2-((4-(6-((4-(1-cyclopropyl-1H-1,2,3-triazol-4-yl)-2-fluorobenzyl)oxy)pyridin-2-yl)piperidin-1-yl)methyl)-1-(oxetan-2-ylmethyl)-1H-benzo[d]imidazole-6-carboxylic acid]

— patent publication US12180197B2, “GLP-1R modulating compounds” (Gilead Sciences, Inc., priority 2021, dated 2024)
